Results on 1 molecule are retold here after patent publication US12083355B1, “Preparation of photodynamic therapy tablet and method for construction and application of anti-tumor model for enhanced cancer treatment” (Sichuan Cancer Hospital, priority 2023, dated 2024).

Holding throughout (experiment): CCK-8 cell viability assay, anti-tumor model with wireless self-powered photodynamic tablet
Common to all, as to assay type: cell-based
Common to all, as to conditions: 10 μM IKE, PDT groups: 8 μM Ce6 6 h, 20 min 660 nm light, CCK-8 after 24 hours
(Tetrazolium dyes change colour on reduction, which living cells bring about.)

Data set [1] has as its system human lung cancer cells H1299. On the procedure:
(§1) This embodiment provides a comprehensive account of constructing an anti-tumor model utilizing the wireless self-powered photodynamic tablet (8), using human lung cancer cells A549 and H1299, as well as mouse lung cancer cells LLC. The experimental procedure involved seeding 8,000 cells per well in a 96-well plate and allowing them to adhere for 24 hours. The cells were divided into four groups: control group (Ctrl), ferroptosis inducer (IKE) group, photodynamic therapy (PDT) group, and combined treatment of IKE and PDT (IKE+PDT) group. The culture medium was then replaced accordingly: the PDT and IKE+PDT groups received 100 μL of serum-free medium containing 8 μM photosensitizer Ce6, while the Ctrl and IKE groups were replaced with serum-free medium. Following this, the cells were incubated for 6 hours under light avoidance conditions (i.e., in the substantial absence of visible light). Subsequently, the culture medium was replaced again: the IKE and IKE+PDT groups received fresh complete medium containing 10 μM IKE, while the Ctrl and PDT groups received complete medium. The PDT and IKE+PDT groups underwent 20 minutes of photodynamic therapy (e.g., with 660 nm light from the photodynamic tablet). After 24 hours of incubation, a cell viability assay was conducted using the CCK-8 reagent kit. Each experiment was repeated three times, and the data were subjected to statistical analysis.

Data set [2] concerns human lung cancer cells A549. On the procedure: as §1
For data set [3], the system named is mouse lung cancer cells LLC. On the procedure: as §1

Each structure is given as a SMILES string.

In the case of `CC(C)Oc1ccc(C(=O)Cn2ccnc2)cc1-n1c(CN2CCN(C(=O)COc3ccc(Cl)cc3)CC2)nc2ccccc2c1=O` [IKE], the “decrease in cell viability compared to the control group” value in data set [1] was 26.0%; in data set [2], 22.4%; in data set [3] it was 30.3%.
